Experimental data published in patent US9890175B2, “Taxane compound, and preparation method and use thereof” (JIANGSU TASLY DIYI PHARMACEUTICAL CO., LTD., priority 2013, dated 2018).
Read-outs that look alike come from different tables or passages of the source.

How the values were obtained:
[1] = tested on: MCF-7 breast cancer cells; assay: MTT proliferation inhibition, MCF-7; format: cell-based; settings: Homo sapiens, MCF7, read-out: Proliferation inhibition rate, MCF-7 Breast cancer
From the text: (§1) 1. Cytotoxicity Assay Using Human Tumor Cell Lines
(§2) Paclitaxel was used as the positive drug.

Hela cervical cancer = assay: MTT proliferation inhibition, HeLa; format: cell-based; settings: Homo sapiens, read-out: Proliferation inhibition rate, HeLa Uterin cancer
From the text: as §1, §2

A375 melanoma = assay: MTT proliferation inhibition, A375; format: cell-based; settings: Homo sapiens, A-375, read-out: Proliferation inhibition rate, A375 Melanoma
From the text: as §1, §2

[2] = Caco-2 cell monolayer membrane transport assay (Papp and recovery); format: in vitro ADME; settings: human, Caco-2, Caco-2, A-B
From the text: Caco-2 Cell Monolayer Membrane Transport Assay
(§3) Human-derived colorectal adenocarcinoma cell line Caco-2 cell monolayer model was used to study the bidirectional transport of the target compounds from the apical (AP) side to the basolateral (BL) side and from BL side to AP side. HPLC was used for quantitative analysis to calculate transport parameters, apparent permeability coefficient (Papp) and the efflux ratio.

[3] = tested on: MDA-MB-436 breast cancer cells; assay: MTT proliferation inhibition, MDA-MB-436; format: cell-based; settings: Homo sapiens, MDA-MB-436, read-out: Proliferation inhibition rate, MDA-MB-436 Breast cancer
From the text: as §1, §2

[4] = tested on: NCI-H460 non-small cell lung cancer; assay: MTT proliferation inhibition, NCI-H460; format: cell-based; settings: Homo sapiens, NCI-H460, read-out: Proliferation inhibition rate, NCI-H460 Non-small cell lung cancer
From the text: as §1, §2

HL-60 leukemia = assay: MTT proliferation inhibition, HL-60; format: cell-based; settings: Homo sapiens, HL-60, read-out: Proliferation inhibition rate, HL60 Leukemia
From the text: as §1, §2

B16 melanoma = assay: MTT proliferation inhibition, B16; format: cell-based; settings: B16, read-out: Proliferation inhibition rate, B16 Melanoma
From the text: as §1, §2

HCT 116 colon cancer = assay: MTT proliferation inhibition, HCT 116; format: cell-based; settings: Homo sapiens, HCT-116, read-out: Proliferation inhibition rate, HCT 116 Colon cancer
From the text: as §1, §2

LNCaP prostate cancer = assay: MTT proliferation inhibition, LNCaP; format: cell-based; settings: Homo sapiens, read-out: Proliferation inhibition rate, LNCaP Prostate cancer
From the text: as §1, §2

LN-18 = assay: MTT proliferation inhibition, LN-18; format: cell-based; settings: Homo sapiens, LN-18, read-out: Proliferation inhibition rate, LN-18 Gastric canser
From the text: as §1, §2

A2780 ovarian cancer = assay: MTT proliferation inhibition, A2780; format: cell-based; settings: Homo sapiens, A2780, read-out: Proliferation inhibition rate, A2780 Ovarian cancer
From the text: as §1, §2

BGC-823 gastric cancer = assay: MTT proliferation inhibition, BGC-823; format: cell-based; settings: Homo sapiens, BGC-823, read-out: Proliferation inhibition rate, BGC-823 Gastric cancer
From the text: as §1, §2

[5] = tested on: breast cancer cell line MCF-7; assay: IC50 on breast cancer cell line MCF-7; format: cell-based; settings: Homo sapiens, MCF7, 72 h, read-out: MCF-7 (IC50, nM)
Procedure: From the activity evaluation data of the above-mentioned preliminary screen, it can be seen that the series of taxanes derivatives synthesized in the present invention have activity. Afterward, the compounds are investigated to examine their IC50 values on breast cancer cell line MCF-7. […] Experiments for each compound were independently repeated for three times and multiple holes were used in each experiment. The exposure time of drugs was 72 hours.

Du145 prostate cancer = assay: MTT proliferation inhibition, Du145; format: cell-based; settings: Homo sapiens, DU-145, read-out: Proliferation inhibition rate, DU145 Prostate cancer
From the text: as §1, §2

[6] = tested on: A549 non-small cell lung cancer; assay: MTT proliferation inhibition, A549; format: cell-based; settings: Homo sapiens, A549, read-out: Proliferation inhibition rate, A549 Non-small cell lung cancer
From the text: as §1, §2

[7] = Caco-2 bidirectional transport, efflux ratio; settings: human, Caco-2
From the text: as §3

K562 leukemia = assay: MTT proliferation inhibition, K562; format: cell-based; settings: Homo sapiens, K562, read-out: Proliferation inhibition rate, K562 Leukemia
From the text: as §1, §2

HT-29 colon cancer = assay: MTT proliferation inhibition, HT-29; format: cell-based; settings: Homo sapiens, HT-29, read-out: Proliferation inhibition rate, HT29 Colon cancer
From the text: as §1, §2

[8] = Mean, read-out: Recovery rate in mass, Mean
[9] = Sample-01, read-out: Papp A-B, Sample-01
[10] = Sample-01, read-out: Recovery rate in mass, Sample-01
[11] = Sample-02, read-out: Papp A-B, Sample-02
[12] = Sample-02, read-out: Recovery rate in mass, Sample-02

| SMILES | inhibition at 1 µM [1] [%] | inhibition at 1 µM (Hela cervical cancer) [%] | inhibition at 1 µM (A375 melanoma) [%] | recovery [2, 8] [%] | Papp A→B [2, 9] [×10⁻⁶ cm/s] | recovery [2, 10] [%] | Papp A→B [2, 11] [×10⁻⁶ cm/s] | recovery [2, 12] [%] | inhibition at 1 µM [3] [%] | inhibition at 1 µM [4] [%] | inhibition at 1 µM (HL-60 leukemia) [%] | inhibition at 1 µM (B16 melanoma) [%] | inhibition at 1 µM (HCT 116 colon cancer) [%] | inhibition at 1 µM (LNCaP prostate cancer) [%] | inhibition at 1 µM (LN-18) [%] | inhibition at 1 µM (A2780 ovarian cancer) [%] | inhibition at 1 µM (BGC-823 gastric cancer) [%] | IC50 [5] [nM] | inhibition at 1 µM (Du145 prostate cancer) [%] | inhibition at 1 µM [6] [%] | further results |
| --- | --- | --- | --- | --- | --- | --- | --- | --- | --- | --- | --- | --- | --- | --- | --- | --- | --- | --- | --- | --- | --- |
| CO[C@H]1C(=O)[C@]2(C)[C@@H](OC)C[C@H]3OC[C@@]3(OC(C)=O)[C@H]2[C@H](OC(=O)c2ccccc2)[C@]23OC(=O)O[C@H]2[C@H](OC(=O)[C@H](O)[C@@H](NC(=O)N(C)C)c2ccccc2)C(C)=C1C3(C)C [PCMI-03] | 95.3 | 99.4 | 88.6 | 61.7 | 3.45 | 65.1 | 3.89 | 58.2 | 80.1 | 85.3 | 95.7 | 78.2 | 58.3 | 82.6 | 95.3 | 95.1 | 92.3 | 2.89 ± 0.1 | 85 | 68.6 | Papp A→B ([2]; Mean, read-out: Papp A-B, Mean): 3.67 ×10⁻⁶ cm/s; Papp A→B [7]: 2.97 ×10⁻⁶ cm/s; Papp B→A [7]: 28.6 ×10⁻⁶ cm/s; efflux ratio [7]: 9.62; inhibition at 1 µM (K562 leukemia): 93.6%; inhibition at 1 µM (HT-29 colon cancer): 88.5% |
| CO[C@H]1C(=O)[C@]2(C)[C@@H](OC)C[C@H]3OC[C@@]3(OC(C)=O)[C@H]2[C@H](OC(=O)c2ccccc2)[C@]23OC(=O)O[C@H]2[C@H](OC(=O)[C@H](O)[C@@H](NC(=O)OC(C)(C)C)c2ccccn2)C(C)=C1C3(C)C [PCMI-04] | 101 | 98.3 | 82.2 | 75.9 | 4.46 | 85.2 | 2.86 | 66.5 | 79.4 | 81.8 | 95.8 | 73.2 | 55 | 79.2 | 91.8 | 94.7 | 89.8 | 3.4 ± 0.14 | 83.9 | 66.3 | Papp A→B [7]: 3.21 ×10⁻⁶ cm/s; Papp B→A [7]: 26.4 ×10⁻⁶ cm/s; efflux ratio [7]: 8.24; inhibition at 1 µM (K562 leukemia): 91.5%; inhibition at 1 µM (HT-29 colon cancer): 88.3% |
| CO[C@H]1C[C@H]2OC[C@@]2(OC(C)=O)[C@H]2[C@H](OC(=O)c3ccccc3)[C@]34OC(=O)O[C@H]3[C@H](OC(=O)[C@H](O)[C@@H](NC(=O)OC(C)(C)C)c3ccccn3)C(C)=C([C@@H](OC(=O)N(C)C)C(=O)[C@]12C)C4(C)C [PCMI-09] | 89.8 | 101 | 96.9 | 76.5 | 5.78 | 70.4 | 3.59 | 82.6 | 81.3 | 85.8 | 98.5 | 81.7 | 65.5 | 86.2 | 95 | 95.6 | 94.9 | 14.31 ± 0.12 | 90.3 | 75.8 | Papp A→B [7]: 3.56 ×10⁻⁶ cm/s; Papp B→A [7]: 29 ×10⁻⁶ cm/s; efflux ratio [7]: 8.14; inhibition at 1 µM (K562 leukemia): 92.6%; inhibition at 1 µM (HT-29 colon cancer): 87.8% |
